Values of other authors as cited in patent publication US20220184030A1, “N-Phenylacetyl-L-prolylglycine ethyl ester compositions and methods for using the same” (priority 2020, published 2022).
Read-outs that look alike come from different tables or passages of the source. Residues, ends and D or L forms follow the SMILES beside them. *: point of attachment. PhAc = O=C(Cc1ccccc1)*

Experiments:
[1] = users
[2] = not given; remark: listed apart in the source

SMILES	side effects (humans who consume effective doses)	tolerance or addiction to the compound [1]	tolerance to the nootropic effects [1]	effective dose relative to the effective dose of piracetam ([2]; versus piracetam)	effective dose compared with racetams (in words) ([2]; versus some racetams, such as piracetam)	side effects (healthy human subjects, compared with piracetam)
C=C(C)[C@@H]1CCC(C)=C[C@H]1c1c(O)cc(CCCCC)cc1O [CBD, cannabidiol]	generally does not cause significant side effects	neither noopept nor CBD has been shown to cause the user to become tolerant or addicted	generally do not develop a tolerance	–	–	–
CCOC(=O)CNC(=O)[C@@H]1CCCN1C(=O)Cc1ccccc1 [noopept, N-Phenylacetyl-L-prolylglycine ethyl ester] (PhAc-Pro-Gly-OEt)	–	neither noopept nor CBD has been shown to cause the user to become tolerant or addicted	generally do not develop a tolerance	over 50 times smaller in mass	smaller effective dose than some racetams	fewer side effects
